Data reported in patent US20050148073A1, “Induction of hepatocyte proliferation in vitro by inhibition of cell cycle inhibitors” (priority 2002, published 2005).
Values belong to the compound of their own block, whether it stands above or below them.

What was measured:
primary rat hepatocytes [1] = test: Hepatocyte morphology / cell spreading (scanning electron micrographs); assay type: cell-based; conditions: 24 hours
Source text: PKA inhibition also had surprising effects on cell morphology. It has been proposed that malleable substrates such as collagen gel are unable to promote cell spreading because it lacks sufficient mechanical strength to resist contractile forces applied by the cell to its adhesion sites.

hepatocytes [2] = test: Dot blot of albumin secretion, 72 hour media samples; assay type: cell-based, rat
Procedure: FIG. 6. Dot blot of albumin secretion—72 hour media samples.
The observed enhanced cell number was accompanied by NO change in albumin secretion, which is a standard measure of differentiated function. […] It also compares it to a thin film of type I collagen on which hepatocytes may proliferate but also lose differentiated function. Inhibition of PKA has little effect on DNA synthesis, cell counts, or albumin secretion in hepatocytes cultured on film.

p42/44 ERKs = test: Phosphorylation of p42/44 ERKs by Western blot; assay type: cell-based, rat; conditions: hepatocytes on collagen gel for 50 hr, with H89
Procedure: (§1) FIG. 2. Effects of PKA inhibition on morphology and cell cycle progression on collagen gel. (A) PKA activity was assessed in hepatocytes cultured on gel or film. In vitro kinase assay was performed; DPM=total ^32P-incorporation, minus counts from sample without substrate. […] [^3H]Thymidine incorporation was assessed from 48-96 hr. (C) Phosphorylation of p42/44 ERKs was determined in hepatocytes cultured on collagen gel for 50 hr by Western blot using a phospho-specific p42/44 antibody (NEB). […] EGF receptor (EGFr) was immunoprecipitated, followed by Western blot analysis of phospho-tyrosine (P-Tyr) or total EGFr.
To determine if ERK activation occurs on both collagen substrates (film and gel), phosphorylation of ERKs was measured using Western blot analysis and antibodies against the phosphorylated form of ERK 1/2 (New England Biolabs). […] Once plated onto collagen film, ERK phosphorylation persisted and increased slightly over the first 2 hours in culture, then gradually diminished out to 24 hours. A second peak of phosphorylation was observed by 48 hours, just prior to entry into S phase. Both peaks of phosphorylation correlated with increased ERK kinase activity as determined by in vitro kinase assays. In contrast, the initial phosphorylation subsides more rapidly in cells on collagen gel and the second peak of ERK phosphorylation was absent. […]

primary rat hepatocytes [3] = test: Cell counting 96 hr after plating on collagen gel (hemocytometer); assay type: cell-based; conditions: H89 3 μM
Procedure: (§2) FIG. 4. Effects of PKA inhibition on hepatocyte proliferation and differentiation. […] Medium was replaced at 96 hr and collected for analysis at 120 hr. Albumin secretion was determined by ELISA.
While growth on collagen films was also high, hepatocytes quickly become de-differentiated on collagen films.
Proliferation: Hepatocytes cultured on 35 mm dishes will be removed from plates using a combination of trypsin, collagenase, and DNAse at various times after plating. Cells are counted using a Coulter counter and hemocytometer. A cell count at 24 hour is also determined to assess the initial number of viable, attached cells. Plates are run in triplicate.

primary rat hepatocytes [4] = test: Urea production in hepatocytes on collagen gel; assay type: cell-based; conditions: with PKA inhibition (FIG. 4C: with or without H89)
Procedure: as §2
(§3) Albumin is a protein synthesized and secreted by hepatocytes and this assay is routinely used as a marker of differentiated function. […] Urea production is also maintained on collagen gel in the presence of PKA inhibition (FIG. 4C).

primary rat hepatocytes [5] = test: Albumin secretion by ELISA (differentiated function); assay type: cell-based; conditions: collagen gel; text: after 48 hours in culture; H89 3 μM
Procedure: FIG. 4. Effects of PKA inhibition on hepatocyte proliferation and differentiation. […] Albumin secretion was determined by ELISA.
as §3

primary rat hepatocytes [6] = test: DNA synthesis, [3H]thymidine incorporation in hepatocytes on collagen film or gel; assay type: cell-based
Procedure: as §1
Once it was confirmed that PKA activity was higher in cells cultured on gel, PKA activity was modified to assess its role in cell cycle progression.
DNA Synthesis: DNA synthesis will be measured using [^3H]-thymidine incorporation in substrate-coated 96-well plates, as previously described (Hansen 1999). DPMs will be normalized to cell number assessed in parallel plates using the CyQuant Assay (Molecular Probes).
Hepatocyte Culture: Cells are obtained by collagenase perfusion of adult Lewis rat liver (Aiken 1990), followed by purification through a Percoll gradient (Sigma, St. Louis, Mo.). Hepatocytes will be plated (12,000 cells/cm^2) in serum-free William's medium E with defined additives including EGF (10 ng/ml, Collaborative Research, Bedford, Mass.) and insulin (20 mU/ml, Sigma) (Hansen 1994).

hepatocytes [7] = test: Cell counts after pulsed PKA inhibition, Example 6 (hemocytometer, Coulter counter); assay type: cell-based, rat
Procedure: Coating: 60 mm plates were coated with film or 5× gel, as described above, with 4 replicates per condition. […] Culture: The cells were cultured as described above, changing media in all plates at 72 hrs, and again at 96 hrs (day 4). […] Harvest: Gel—media was removed from plates. Five mL collagenase (approx. 1 mg/ml) in PBS was added to plates and incubated for 20 minutes at 37° C. Three mL trypsin-EDTA was added directly to collagenase solution and incubated another 15 minutes at 37° C. Media was removed with a pipette and plate was washed several times with the media, before the media was collected into a 15 mL tube. Tubes were centrifuged at 1000 rpm for 10 minutes at 4° C. Supernatant was removed and pellets from each of the four replicates were resuspended in 1 mL fresh media. Tube was weighed for end volume and equalized to 1 ml later. Film—Media was removed from plates. Trypsin-EDTA was added to dishes (3 ml/dish) and dishes were incubated at 37° C. for 15 minutes. Procedure was repeated. Samples were snap frozen in ethanol at −70° C. before thawing and counting. Counting: Hemocytometer—100 μL sample was added to 900 μL trypan blue in PBS […]. Cells were counted. Repeated procedure seven times for eight total counts per sample. Coulter Counter—Added 250 μL sample to 20 mL PBS in small Coulter vessel. Counted with predetermined pre-sets, collecting 1 mL of 20 mL sample and recording result. Repeated procedure seven times for eight total counts per sample. It should be noted that the inventors also determined that a pulse of PKA inhibitor is preferable to a constant exposure to PKA. If the PKA inhibitor is left on for the entire culture period, there is no enhanced cell number, presumably due to the requirement of PKA in later stages of the cell cycle. Thus, the methodology differs slightly from our initial report in which we simply stated the inhibitor is added to the culture. In the present experiments, the inventors exposed the cells to the inhibitor on for the first 72 hours, removed it for the next 24 hours, and then added it back again.

[8] = test system: protein kinase inhibitory peptide, PKI

Compound: Nc1ncnc2c1nc(Br)n2[C@@H]1O[C@@H]2COP(=O)(O)O[C@H]2[C@H]1O [8-Br-cAMP]
- cell spreading on collagen film (primary rat hepatocytes [1]; collagen film): significantly inhibits cell spreading

- albumin secretion in hepatocytes cultured on film (hepatocytes [2]; collagen film): little effect
- DNA synthesis in hepatocytes cultured on film (primary rat hepatocytes [6]; collagen film, Example 6 discussion): little effect
- cell counts in hepatocytes cultured on film (hepatocytes [7]; collagen film): little effect
Compound: O=S(=O)(NCCNC/C=C/c1ccc(Br)cc1)c1cccc2cnccc12 [H89, N-[2-((p-bromocinnamyl)amino)ethyl]-5-isoquinolinesulfonamide]
- albumin secretion (dot blot, not quantitated) (hepatocytes [2]; collagen gel cultures with or without H89, 72 hours): NO change
- cell spreading on collagen gel (primary rat hepatocytes [1]; collagen gel): significant spreading
- ERK phosphorylation (p42/44 ERKs): significantly enhanced
- increase in cell number compared to DMSO controls (primary rat hepatocytes [3]): 67%
- urea production (primary rat hepatocytes [4]): maintained
- albumin secretion compared to DMSO controls (primary rat hepatocytes [5]): not reduced
- DNA synthesis on collagen gel (primary rat hepatocytes [6]; H89 2 μM vs DMSO, collagen gel, [3H]thymidine incorporation 48-96 hr): significantly increased
- DNA synthesis on collagen film (primary rat hepatocytes [6]; H89 2 μM vs DMSO, film-plated cells, 48-96 hr): little effect
- higher cell number with PKA inhibition (hepatocytes [7]; type I collagen gel, eight days in culture, 3.3 μM H89 pulsed): 15-20%
- average increase in cell number, five experiments (hepatocytes [7]; type I collagen gel, eight days, 3.3 μM H89 pulsed, p-value=0.0004): 16%±3.3%
- cell number at four days (hepatocytes [7]; type I collagen gel, representative experiment (FIG. 5A)): no change in cell number

Compound: N#CC(=C(/N)Sc1ccccc1N)/C(C#N)=C(\N)Sc1ccccc1N [U0126]
- DNA synthesis, MEK1 inhibition during early G1 (primary rat hepatocytes [6]; inhibitor applied during early G1): does not
- DNA synthesis, MEK1 inhibition during late G1 (primary rat hepatocytes [6]; inhibitor applied during late G1): inhibits DNA synthesis

Compound: protein kinase A (PKA)
- [^32P] incorporation in the in vitro PKA kinase assay [8]: the protein kinase inhibitory peptide, PKI, specifically inhibits [^32P] incorporation
